The experiment deals with C57BL/6J mice. Kind of experiment: Delayed-type hypersensitivity response (DTH), footpad swelling after sheep red blood cell challenge (Biological Assay 2). In kind it is in vivo. Particulars: administered orally (p.o. once daily during sensitization and challenge phases), male C57BL/6J mice. The procedure: Delayed-Type Hypersensitivity Response (DTH)
This assay was performed essentially as disclosed in Kudlacz E. et al, see supra. Male C57BL/6J mice received i.v. injections of 1×10^5 sheep red blood cells in a volume of 0.2 mL sterile phosphate buffered saline (PBS). Four days later, sensitized mice received an injection of 1×10^8 sheep red blood cells in a volume of 30 μL sterile PBS into the left footpad. Twenty-four hours later, animals were sacrificed and their footpads removed and weighted. The DTH swelling response was calculated by subtracting the right footpad weight (baseline) from that of the left footpad (experimental). Test compounds or vehicle (0.2% carboxymethylcellulose and 1% Tween 80 in water) were administered p.o. once daily during both sensitization and challenge phases of the DTH response. Compounds of examples 1 cc, 1cr, 1ct, 5u, 10h and 10p were active in this assay when administered orally.

Consider 4 molecules from patent US20100204187A1, “Purine Derivatives” (priority 2007, published 2010).

The structures appear in SMILES notation.

As for `COc1ccc(Nc2nc(-c3cccc(S(C)(=O)=O)c3)c3nc[nH]c3n2)cc1OC` [Example 1cr, 2-(3,4-dimethoxyphenyl)amino-6-(3-methanesulfonyl)phenyl-9H-purine], the “activity in DTH swelling response assay” value is recorded as “active”.
As for `COc1ccc(Nc2nc(-c3ccc(NC(C)=O)cc3)c3nc[nH]c3n2)cc1S(N)(=O)=O` [Example 1 cc, 6-(4-acetylamino)phenyl-2-(4-methoxy-3-aminosulfonylphenyl)amino-9H-purine], the “activity in DTH swelling response assay” value is listed as “active”.
Next, `CS(=O)(=O)c1cccc(-c2nc(Nc3ccc(CCO)cc3)nc3[nH]cnc23)c1` [Example 1ct]: “active”; `CCCN(C)c1ccc(-c2nc(Nc3ccc(N4CCOCC4)cc3)nc3[nH]cnc23)cn1` [Example 5u, 6-[(6-N-methylpropylamino)pyridin-3-yl]-2-[4-(4-morpholino)phenyl]amino-9H-purine]: “active”.
